Reference: PMC12149313 (Cell Death & Disease, 2025)

System: T1, β-tubulin
T1 construct: gene TUBB
Experiment: ITDR-CETSA of β-tubulin at […] °C in CFPAC-1 COMT-/- cells
Format: cell-based

EC50: 3 ± 2 µM
SMILES: CNc1nc2ccccc2n2c(-c3ccc(OC)c(O)c3)cnc12 [EAPB04303]
